Laboratory results taken from patent US11753397B2, “Cereblon binders for the degradation of ikaros” (C4 Therapeutics, Inc., priority 2018, dated 2023).

Tested on: NCIH929.1 cells
Test: Cell viability assay (CellTiter-Glo 2.0, ATP quantification)
Format: cell-based
Settings: NCIH929.1 cell viability, CellTiter-Glo 2.0, 96 hr incubation, top concentration 1 μM
Method: Example 59. Cell Viability Assay
RPMI 1640 medium, fetal bovine serum (FBS) and 2-mercaptoethanol were purchased from Gibco (Grand Island, N.Y., USA). CellTiter-Glo® 2.0 Assay was purchased from Promega (Madison, Wis., USA). NCIH929.1 cell line was purchased from ATCC (Manassas, Va., USA). Cell culture flasks and 384-well microplates were acquired from VWR (Radnor, Pa., USA).
NCIH929.1 cell viability was determined based on quantification of ATP using CellTiter-Glo® 2.0 luminescent Assay kit, which signals the presence of metabolically-active cells. Briefly, the test compound was added to 384-well plates at a top concentration of 1 μM with 10 points, half log titration in duplicates. NCIH929.1 cells were seeded into the 384-well plates in RPMI medium containing 10% FBS and 0.05 mM 2-mercaptoethanol at a cell density of 750 cells per well. Cells treated in the absence of the test compound were the negative control and cells treated in the absence of CellTiter-Glo® 2.0 were the positive control. At the same day of compound treatment, CellTiter-Glo® 2.0 was added to a plate with cells treated in the absence of the test compound to establish Cytostatic control value (CT0). Cells treated with the test compound were incubated at 37° C. with 5% CO2 for 96 hr. CellTiter-Glo reagent was then added to the cells and luminescence was acquired on EnVision™ Multilabel Reader (PerkinElmer, Santa Clara, Calif., USA).

Compound	GI50 [nM]
O=C1CCC(N2C(=O)c3cccc(NCc4cnn(C5CCN(C(=O)C6CC(F)(F)C6)CC5)c4)c3C2=O)C(=O)N1 (centres unmarked) [Compound 29, 4-(((1-(1-(3,3-difluorocyclobutane-1-carbonyl)piperidin-4-yl)-1H-pyrazol-4-yl)methyl)amino)-2-(2,6-dioxopiperidin-3-yl)isoindoline-1,3-dione]	< 100
O=C1CCC(N2C(=O)c3cccc(NCc4cnn(C5CCN(C(=O)CCC(F)(F)F)CC5)c4)c3C2=O)C(=O)N1 (centres unmarked) [Compound 30, 2-(2,6-dioxopiperidin-3-yl)-4-(((1-(1-(4,4,4-trifluorobutanoyl)piperidin-4-yl)-1H-pyrazol-4-yl)methyl)amino)isoindoline-1,3-dione]	< 100
COCC(=O)N1CCC(n2cc(CNc3cccc4c3C(=O)N(C3CCC(=O)NC3=O)C4=O)cn2)CC1 (centres unmarked) [Compound 31, 2-(2,6-dioxopiperidin-3-yl)-4-(((1-(1-(2-methoxyacetyl)piperidin-4-yl)-1H-pyrazol-4-yl)methyl)amino)isoindoline-1,3-dione]	< 100
O=C1CCC(N2C(=O)c3cccc(NCc4cnn(C5CCN(C(=O)C6CCCC6)CC5)c4)c3C2=O)C(=O)N1 (centres unmarked) [Compound 32, 4-(((1-(1-(cyclopentanecarbonyl)piperidin-4-yl)-1H-pyrazol-4-yl)methyl)amino)-2-(2,6-dioxopiperidin-3-yl)isoindoline-1,3-dione]	< 100
CC1(C(=O)N2CCC(n3cc(CNc4cccc5c4C(=O)N(C4CCC(=O)NC4=O)C5=O)cn3)CC2)CCC1 (centres unmarked) [Compound 33, 2-(2,6-dioxopiperidin-3-yl)-4-(((1-(1-(1-methylcyclobutane-1-carbonyl)piperidin-4-yl)-1H-pyrazol-4-yl)methyl)amino)isoindoline-1,3-dione]	< 1
Cn1cc(C(=O)N2CCC(n3cc(CNc4cccc5c4C(=O)N(C4CCC(=O)NC4=O)C5=O)cn3)CC2)cn1 (centres unmarked) [Compound 34, 2-(2,6-dioxopiperidin-3-yl)-4-(((1-(1-(1-methyl-1H-pyrazole-4-carbonyl)piperidin-4-yl)-1H-pyrazol-4-yl)methyl)amino)isoindoline-1,3-dione]	< 100
CCCC(=O)N1CCC(n2cc(CNc3cccc4c3C(=O)N(C3CCC(=O)NC3=O)C4=O)cn2)CC1 (centres unmarked) [Compound 35, 4-(((1-(1-butyrylpiperidin-4-yl)-1H-pyrazol-4-yl)methyl)amino)-2-(2,6-dioxopiperidin-3-yl)isoindoline-1,3-dione]	< 100
CC1(C(=O)N2CCC(n3cc(CNc4cccc5c4C(=O)N(C4CCC(=O)NC4=O)C5=O)cn3)CC2)CC1 (centres unmarked) [Compound 36, 2-(2,6-dioxopiperidin-3-yl)-4-(((1-(1-(1-methylcyclopropane-1-carbonyl)piperidin-4-yl)-1H-pyrazol-4-yl)methyl)amino)isoindoline-1,3-dione]	< 100
CN(C)CC(=O)N1CCC(n2cc(CNc3cccc4c3C(=O)N(C3CCC(=O)NC3=O)C4=O)cn2)CC1 (centres unmarked) [Compound 37, 4-(((1-(1-(dimethylglycyl)piperidin-4-yl)-1H-pyrazol-4-yl)methyl)amino)-2-(2,6-dioxopiperidin-3-yl)isoindoline-1,3-dione]	< 100
O=C1CCC(N2C(=O)c3cccc(NCc4cnn(C5CCN(C(=O)[C@H]6CCCO6)CC5)c4)c3C2=O)C(=O)N1 (stereo partly drawn) [Compound 38, 2-(2,6-dioxopiperidin-3-yl)-4-(((1-(1-((R)-tetrahydrofuran-2-carbonyl)piperidin-4-yl)-1H-pyrazol-4-yl)methyl)amino)isoindoline-1,3-dione]	< 100
O=C1CCC(N2C(=O)c3cccc(NCc4cnn(C5CCN(C(=O)c6cc(C7CC7)on6)CC5)c4)c3C2=O)C(=O)N1 (centres unmarked) [Compound 39, 4-(((1-(1-(5-cyclopropylisoxazole-3-carbonyl)piperidin-4-yl)-1H-pyrazol-4-yl)methyl)amino)-2-(2,6-dioxopiperidin-3-yl)isoindoline-1,3-dione]	< 100
CCCCC(=O)N1CCC(n2cc(CNc3cccc4c3C(=O)N(C3CCC(=O)NC3=O)C4=O)cn2)CC1 (centres unmarked) [Compound 40, 2-(2,6-dioxopiperidin-3-yl)-4-(((1-(1-pentanoylpiperidin-4-yl)-1H-pyrazol-4-yl)methyl)amino)isoindoline-1,3-dione]	< 100
CC(C)OCC(=O)N1CCC(n2cc(CNc3cccc4c3C(=O)N(C3CCC(=O)NC3=O)C4=O)cn2)CC1 (centres unmarked) [Compound 41, 2-(2,6-dioxopiperidin-3-yl)-4-(((1-(1-(2-isopropoxyacetyl)piperidin-4-yl)-1H-pyrazol-4-yl)methyl)amino)-isoindoline-1,3-dione]	< 100
O=C1CCC(N2C(=O)c3cccc(NCc4cnn(C5CCN(C(=O)C6CCCOC6)CC5)c4)c3C2=O)C(=O)N1 (centres unmarked) [Compound 42, 2-(2,6-dioxopiperidin-3-yl)-4-(((1-(1-(tetrahydro-2H-pyran-3-carbonyl)piperidin-4-yl)-1H-pyrazol-4-yl)methyl)amino)isoindoline-1,3-dione]	< 100
O=C1CCC(N2C(=O)c3cccc(NCc4cnn(C5CCN(C(=O)CN6CCOCC6)CC5)c4)c3C2=O)C(=O)N1 (centres unmarked) [Compound 43, 2-(2,6-dioxopiperidin-3-yl)-4-(((1-(1-(2-morpholinoacetyl)piperidin-4-yl)-1H-pyrazol-4-yl)methyl)amino)isoindoline-1,3-dione]	< 100
O=C1CCC(N2C(=O)c3cccc(NCc4cnn(C5CCN(C(=O)C67CC8CC(CC(C8)C6)C7)CC5)c4)c3C2=O)C(=O)N1 (centres unmarked) [Compound 44, 4-(((1-(1-(adamantane-1-carbonyl)piperidin-4-yl)-1H-pyrazol-4-yl)methyl)amino)-2-(2,6-dioxopiperidin-3-yl)isoindoline-1,3-dione]	< 1
CC1CC1C(=O)N1CCC(n2cc(CNc3cccc4c3C(=O)N(C3CCC(=O)NC3=O)C4=O)cn2)CC1 (centres unmarked) [Compound 45, 2-(2,6-dioxopiperidin-3-yl)-4-(((1-(1-(2-methylcyclopropane-1-carbonyl)piperidin-4-yl)-1H-pyrazol-4-yl)methyl)amino)isondoline-1,3-dione]	< 100
CC(C)(O)CC(=O)N1CCC(n2cc(CNc3cccc4c3C(=O)N(C3CCC(=O)NC3=O)C4=O)cn2)CC1 (centres unmarked) [Compound 46, 2-(2,6-dioxopiperidin-3-yl)-4-(((1-(1-(3-hydroxy-3-methylbutanoyl)piperidin-4-yl)-1H-pyrazol-4-yl)methyl)amino)isoindoline-1,3-dione]	< 100
O=C1CCC(N2C(=O)c3cccc(NCc4cnn(C5CCN(C(=O)CC67CC8CC(CC(C8)C6)C7)CC5)c4)c3C2=O)C(=O)N1 (centres unmarked) [Compound 47, 4-(((1-(1-(2-(adamantan-1-yl)acetyl)piperidin-4-yl)-1H-pyrazol-4-yl)methyl)amino)-2-(2,6-dioxopiperidin-3-yl)isoindoline-1,3-dione]	< 1
C[C@@H](C(=O)N1CCC(n2cc(CNc3cccc4c3C(=O)N(C3CCC(=O)NC3=O)C4=O)cn2)CC1)c1ccccc1 (stereo partly drawn) [Compound 48, 2-(2,6-dioxopiperidin-3-yl)-4-(((1-(1-((R)-2-phenylpropanoyl)piperidin-4-yl)-1H-pyrazol-4-yl)methyl)amino)isoindoline-1,3-dione]	< 100
CC(C)CC(=O)N1CCC(n2cc(CNc3cccc4c3C(=O)N(C3CCC(=O)NC3=O)C4=O)cn2)CC1 (centres unmarked) [Compound 49, 2-(2,6-dioxopiperidin-3-yl)-4-(((1-(1-(3-methylbutanoyl)piperidin-4-yl)-1H-pyrazol-4-yl)methyl)amino)isoindoline-1,3-dione]	< 100
CC(C)(N)C(=O)N1CCC(n2cc(CNc3cccc4c3C(=O)N(C3CCC(=O)NC3=O)C4=O)cn2)CC1 (centres unmarked) [Compound 50, 4-(((1-(1-(2-amino-2-methylopropanoyl)piperidin-4-yl)-1H-pyrazol-4-yl)methyl)amino)-2-(2,6-dioxopiperidin-3-yl)isoindoline-1,3-dione]	< 100
C[C@H](C(=O)N1CCC(n2cc(CNc3cccc4c3C(=O)N(C3CCC(=O)NC3=O)C4=O)cn2)CC1)c1ccccc1 (stereo partly drawn) [Compound 51, 2-(2,6-dioxopiperidin-3-yl)-4-(((1-(1-((S)-2-phenylpropanoyl)piperidin-4-yl)-1H-pyrazol-4-yl)methyl)amino)isoindoline-1,3-dione]	< 100
CC(C)(O)C(=O)N1CCC(n2cc(CNc3cccc4c3C(=O)N(C3CCC(=O)NC3=O)C4=O)cn2)CC1 (centres unmarked) [Compound 52, 2-(2,6-dioxopiperidin-3-yl)-4-(((1-(1-(2-hydroxy-2-methylpropanoyl)piperidin-4-yl)-1H-pyrazol-4-yl)methyl)amino)isoindoline-1,3-dione]	< 100
C[C@H](O)C(=O)N1CCC(n2cc(CNc3cccc4c3C(=O)N(C3CCC(=O)NC3=O)C4=O)cn2)CC1 (stereo partly drawn) [Compound 53, 2-(2,6-dioxopiperidin-3-yl)-4-(((1-(1-((S)-2-hydroxypropanoyl)piperidin-4-yl)-1H-pyrazol-4-yl)methyl)amino)isoindoline-1,3-dione]	< 100
CN1CCC(C)(C(=O)N2CCC(n3cc(CNc4cccc5c4C(=O)N(C4CCC(=O)NC4=O)C5=O)cn3)CC2)CC1 (centres unmarked) [Compound 55, 4-(((1-(1-(1,4-dimethylpiperidine-4-carbonyl)piperidin-4-yl)-1H-pyrazol-4-yl)methyl)amino)-2-(2,6-dioxopiperidin-3-yl)isoindoline-1,3-dione]	< 100
